The term inhibition denotes the drop in the measured response relative to a control, in per cent.

Data on two molecules can be found in article PMC10522932, “A broad inhibitor of acyl-acyl carrier protein synthetases” (Biochemistry and Biophysics Reports, 2023).

Holding throughout (assay): urea-PAGE gel shift of acyl-ACP, densitometry
Assay type in all cases: biochemical
On the technique in general: A gel shift assay detects complexes by their altered migration in electrophoresis.

Experiment [1] has as its target T1, VhAasS (Vibrio harveyi, UniProt Q00IB3).
T1 construct: gene aasS; His6-tagged, E. coli BL21[DE3], Ni-NTA purified; soluble enzyme
T1 sequence (Q00IB3 1-533): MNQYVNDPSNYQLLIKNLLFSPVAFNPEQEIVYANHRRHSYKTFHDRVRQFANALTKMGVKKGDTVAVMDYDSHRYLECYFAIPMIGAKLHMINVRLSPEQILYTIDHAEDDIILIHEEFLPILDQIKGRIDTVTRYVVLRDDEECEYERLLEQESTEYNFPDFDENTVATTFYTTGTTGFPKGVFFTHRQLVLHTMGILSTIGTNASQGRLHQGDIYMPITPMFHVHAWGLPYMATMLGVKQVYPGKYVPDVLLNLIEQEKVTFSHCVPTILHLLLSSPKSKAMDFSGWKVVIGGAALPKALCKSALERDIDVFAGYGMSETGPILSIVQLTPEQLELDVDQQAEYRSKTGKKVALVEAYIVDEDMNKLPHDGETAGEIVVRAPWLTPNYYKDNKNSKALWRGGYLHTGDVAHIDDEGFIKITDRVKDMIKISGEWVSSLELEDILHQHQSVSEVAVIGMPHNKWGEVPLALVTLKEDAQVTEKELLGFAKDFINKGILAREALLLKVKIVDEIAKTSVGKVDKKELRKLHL
Conditions: read-out: % inhibition at 1 mM.

Experiment [2] addresses T2, AasC (Chlamydia trachomatis, UniProt O84781).
T2 construct: gene aas; His6-tagged (pET16b or pET29a, synthetic gene), E. coli BL21[DE3], Ni-NTA purified
T2 sequence (O84781 1-537): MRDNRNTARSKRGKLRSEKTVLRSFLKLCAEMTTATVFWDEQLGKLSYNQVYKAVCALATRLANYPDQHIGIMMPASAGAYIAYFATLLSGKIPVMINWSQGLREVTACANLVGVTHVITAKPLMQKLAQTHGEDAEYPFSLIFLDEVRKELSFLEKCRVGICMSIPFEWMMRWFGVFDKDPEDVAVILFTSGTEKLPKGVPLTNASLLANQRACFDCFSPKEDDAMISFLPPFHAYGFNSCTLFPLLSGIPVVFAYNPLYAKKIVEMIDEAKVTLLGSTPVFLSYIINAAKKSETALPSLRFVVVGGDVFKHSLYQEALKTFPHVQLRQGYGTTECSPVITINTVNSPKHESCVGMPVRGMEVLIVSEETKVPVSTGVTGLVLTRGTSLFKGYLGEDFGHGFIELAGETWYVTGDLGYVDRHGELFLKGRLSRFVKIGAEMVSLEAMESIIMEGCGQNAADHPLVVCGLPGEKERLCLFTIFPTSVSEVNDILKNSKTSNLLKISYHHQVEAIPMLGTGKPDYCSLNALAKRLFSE
To be noted: read-out: % inhibition at 1 mM.

Experiment [3] deals with T1, VhAasS. Conditions: holo-EcACP 30 uM, decanoic acid 1 mM, ATP 10 mM, MgCl2 12.5 mM, TCEP 2.5 mM, enzyme 2 uM, pH 7.5, 37 C, 24 h.
For experiment [4], the target named is T2, AasC. To be noted: holo-EcACP 30 uM, decanoic acid 1 mM, ATP 10 mM, MgCl2 12.5 mM, TCEP 2.5 mM, enzyme 50 uM, pH 7.5, 37 C, 24 h.

Consider `CCCCCCCCCC(=O)NS(=O)(=O)OC[C@H]1O[C@@H](n2cnc3c(N)ncnc32)[C@H](O)[C@@H]1O` [C10-AMS], for which the inhibition at 1000 µM on VhAasS [1] and at AasC [2] was 100% in each case.
Turning to `CCCCCCCCCC(=O)O` [decanoic acid], the “urea-PAGE gel shift of acyl-ACP, densitometry” value at VhAasS [3] and at AasC [4] was “All AasS enzymes tested were able to load C10 onto EcACP” each time.
